Article PMC5372560, “D-Amino Acid Position Influences the Anticancer Activity of Galaxamide Analogs: An Apoptotic Mechanism Study” (International Journal of Molecular Sciences, 2017)
≈ marks a conversion by molar mass, not a printed value. Where “and” joins values, the source holds several entries; their conditions need not be identical. Equal values may be shown once. Where a SMILES comes first, the peptide text is derived from it. [ ]: non-standard residue; d: D form. NMeL = CN[C@@H](CC(C)C)C(=O)O

Assays:
[1] = test system: human breast adenocarcinoma cells (MDA-MB-435); type: cell-based; conditions: 48 h
Experimental: (§1) Human hepatocellular cells (HepG2), human breast cancer cells (MCF-7), human breast adenocarcinoma cells (MDA-MB-435) and a human cervical carcinoma cell line (Hela) were selected as our in vitro cancerous cell models. The cells were all cultured in DMEM medium containing 10% fetal bovine serum, 1% penicillin-streptomycin and antifungal agent, incubated at 37 °C with 5% CO2 and 90% humidity. The cytotoxicity of Galaxamide and its analogs on the four cancerous cells was evaluated using the MTT method. […] After that, 20 µL MTT reagents were added to each well and incubated between 3–5 h according to the nature of cells; the color intensity of the cell culture at 570 nm was measured using a microplate spectrophotometer. Finally, the cell viability was calculated accordingly. Note: […]

[2] = test system: human breast cancer cells (MCF-7); type: cell-based; conditions: 48 h
Experimental: as §1

[3] = test system: human cervical carcinoma cell line (Hela); type: cell-based; conditions: 48 h
Experimental: as §1

[4] = test system: human hepatocellular cells (HepG2); type: cell-based; conditions: 48 h
Experimental: as §1

[5] = test system: HepG2 cells; assay: Cell cycle analysis by propidium iodide staining, flow cytometry; type: cell-based, human; conditions: 48 h, PI staining
Experimental: In particular, HepG2 cells were exposed to Galaxamide, Analog-4 and Analog-6 with concentrations of 0, 5, 10 and 15 µg/mL for 48 h. Generally, treatment with Galaxamide, Analog-4 and -6 all caused changes in the cell cycle of HepG2 cells, mainly in the sub-G1 stage, where a subdiploid peak was detected, indicating their apoptotic effects on HepG2 cells.
(§2) HepG2 cells were seeded in 6-well tissue culture plates at a concentration of 1 × 10^5 cells/well. Galaxamide and its analogs with a concentration of 0, 5, 10 and 15 µg/mL were added to the cell cultures and incubated for 48 h. After that, 5 µL Annexin V-fluorescein isothiocyanate (FITC) and 5 µL of PI were added for dual staining of the cells and analyzed by FACScan flow cytometry. Cell cycle and apoptotic cells were determined by counting the FITC-positive and PI-negative fractions.

[6] = test system: HepG2 cells; assay: Annexin V-FITC / PI dual staining, flow cytometry (apoptosis); type: cell-based, human; conditions: 48 h
Experimental: To further study the apoptotic mechanism of Analog-6, the Annexin V-fluorescein isothiocyanate (FITC) and propidium iodide (PI) dual staining method was used. Briefly, HepG2 cells were treated with 0, 5, 10 and 15 µg/mL Analog-6 for 48 h. Then, cells were washed several times with PBS and stained by dual staining of two fluorescent dyes, Annexin V-FITC and PI, and analyzed by flow cytometry. Results are shown in Figure 5, where HepG2 cells exposed to Galaxamide were used as the control. Note that Q1, Q2, Q3 and Q4 in the figure represent four quadrants of necrotic cells, late apoptotic cells, normal cells and early apoptotic cells, respectively.
as §2

[7] = test system: cleaved caspase-3; assay: Western blot, cleaved caspase-3 expression; type: cell-based, human; conditions: HepG2, 15 µg/mL, 48 h
Experimental: (§3) There are two major pathways involved in cells apoptosis: the mitochondria-mediated intrinsic pathway and the death receptor-mediated extrinsic pathway. To elucidate the possible mechanism of the apoptotic effects of Analog-6, Western blot experiments were performed. HepG2 cells were treated with 0, 5, 10 and 15 µg/mL Analog-6 for 48 h, and then expression of cleaved caspase-3, caspase-9 and poly(ADP-ribose) polymerase (PARP) was quantified, results are shown in Figure 6.
(§4) Target proteins were first extracted using Radio-Immunoprecipitation Assay (RIPA) buffer and quantified by the Bradford method. Then, proteins were transferred to a polyvinylidene difluoride (PVDF) membrane, and the membrane was blocked with 5% non-fat milk for 1 h and incubated with a primary antibody (Cell Signaling Technology, Danvers, MA, USA, rabbit monoclonal antibody, 1:1000) at 4 °C overnight. After that, the membrane was washed two times with TBST buffer (Tris-buffered saline with 0.1% Tween-20) and incubated with a secondary antibody (goat-anti-rabbit horseradish peroxidase (HRP)-conjugated 1:15,000) for 1 h under room temperature. Finally, the membrane was washed three times with TBST, and the intensity of the specific immunoreactive bands was detected by enhanced chemiluminescence.

[8] = test system: caspase-9; assay: Western blot, caspase-9 expression; type: cell-based, human; conditions: HepG2, 15 µg/mL, 48 h
Experimental: as §3, §4

[9] = test system: poly(ADP-ribose) polymerase (PARP); assay: Western blot, cleaved PARP expression; type: cell-based, human; conditions: HepG2, 15 µg/mL, 48 h
Experimental: as §3, §4

[10] = test system: HepG2 cells; assay: Hoechst 33342 staining, nuclear morphology; type: cell-based, human; conditions: HepG2, increasing concentration up to 15 µg/mL, 48 h, fluorescence microscope
Experimental: We then investigated the effect of Galaxamide and Analog-6 on the cell morphology and nuclear integrity. HepG2 cells were treated with an increasing concentration of Analog-6 for 48 h and then stained by Hoechst 33342 (a DNA fluorescent dye). The effect of Galaxamide on HepG2 cells was used as a control. Noting that Hoechst 33342 is a DNA fluorescent dye, the fluorescently-stained DNA presents a blue color under the fluorescence microscope.
HepG2 cells were seeded in 6-well tissue culture plates at a concentration of 1 × 10^5 cells/well. Galaxamide and its analogs with a concentration of 0, 5, 10 and 15 µg/mL were added to the cell cultures and incubated for 48 h. After that, cells were fixed with 3.7% of paraformaldehyde for 10 min and washed three times with PBS. Then, Hoechst 33342 was added for cell staining, then visualized using a fluorescent microscope.

[11] = test system: human hepatocellular carcinoma HepG2; conditions: in vitro, HepG2 cell line; cited from earlier work
Text: (§5) In our initial work, a novel cyclic-pentapeptide named Galaxamide was isolated from a marine algae Galaxaura filamentosa collected from Xisha Island in the South China Sea. Galaxamide is a cyclic-pentapeptide composed of five L-leucines, including two N-methylated ones. N-methylated amino acid is an important component endowing the anticancer potential to the cyclopeptides.

[12] = test system: human renal cell carcinoma GRC-1; conditions: in vitro, GRC-1 cell line; cited from earlier work
Text: as §5

[13] = test system: human normal liver cell line L02; conditions: cited from earlier work
Text: In our previous work, we synthesized several Galaxamide analogs and tested their cytotoxicity on a normal cell line (human normal liver cell line L02) and a broad range of cancerous cell lines in vitro.

Structure (SMILES) | IC50 (µg/mL) in Different Cell Lines, MDA-MB-435 [1] | IC50 (µg/mL) in Different Cell Lines, MCF-7 [2] | IC50 (µg/mL) in Different Cell Lines, Hela [3] | IC50 (µg/mL) in Different Cell Lines, HepG2 [4] | G0/G1 cells ([5]; HepG2, 5 µg/mL) | G2/M cells ([5]; HepG2, 5 µg/mL) | S cells ([5]; HepG2, 5 µg/mL) | Sub-G1 cells ([5]; HepG2, 5 µg/mL) | G0/G1 cells ([5]; HepG2, 10 µg/mL) | G2/M cells ([5]; HepG2, 10 µg/mL) | S cells ([5]; HepG2, 10 µg/mL) | Sub-G1 cells ([5]; HepG2, 10 µg/mL) | G0/G1 cells ([5]; HepG2, 15 µg/mL) | G2/M cells ([5]; HepG2, 15 µg/mL) | S cells ([5]; HepG2, 15 µg/mL) | Sub-G1 cells ([5]; HepG2, 15 µg/mL) | also measured
CC(C)C[C@@H]1NC(=O)[C@H](CC(C)C)N(C)C(=O)[C@H](Cc2ccccc2)NC(=O)[C@@H](CC(C)C)NC(=O)[C@H](CC(C)C)N(C)C1=O [Analog-6, Cyclo(Me-Leu-D-Leu-Phe-Me-Leu-Leu)] | 6.76 ± 0.22 µg/mL (≈ 10.8 µM) | 8.15 ± 0.18 µg/mL (≈ 13 µM) | 3.42 ± 0.25 µg/mL (≈ 5.45 µM) | 4.1 ± 0.20 µg/mL (≈ 6.53 µM) | 61.5% | 21.6% | 16.9% | 3.30% | 56.8% | 14.4% | 28.8% | 5.36% | 88.6% | 4.22% | 7.18% | 67.9% and 68% | Q4, early apoptotic cells ([6]; HepG2, 5 µg/mL): 7.3%; Q4, early apoptotic cells ([6]; HepG2, 10 µg/mL): 16.9%; Q4, early apoptotic cells ([6]; HepG2, 15 µg/mL): 49.4% and ~50%; increased fold of cleaved caspase-3 expression [7]: 3.4 fold; increased fold of caspase-9 expression [8]: 3.3 fold; increased fold of PARP expression [9]: 6.8 fold; nuclei morphology after Hoechst 33342 staining [10]: severely damaged
CC(C)C[C@@H]1NC(=O)[C@H](CC(C)C)N(C)C(=O)[C@H](CC(C)C)NC(=O)[C@H](CC(C)C)N(C)C(=O)[C@H](CC(C)C)NC1=O [Galaxamide] (cyclo(LL[NMeL]L[NMeL])) |  |  |  |  | 71.2% | 9.18% | 19.6% | 1.30% | 73.7% | 9.03% | 17.2% | 8.81% | 70.8% | 9.46% | 19.8% | 13.1% | Q4, early apoptotic cells ([6]; HepG2, 5 µg/mL): 1.8%; Q4, early apoptotic cells ([6]; HepG2, 10 µg/mL): 10.6%; Q4, early apoptotic cells ([6]; HepG2, 15 µg/mL): 12.1%; nuclei morphology after Hoechst 33342 staining [10]: slight shrinking of nuclei; IC50, antiproliferative activity, HepG2 [11]: 4.63 µg/mL (≈ 7.8 µM); IC50, antiproliferative activity, GRC-1 [12]: 4.26 µg/mL (≈ 7.17 µM); IC50, cytotoxicity on normal L02 [13]: > 40 µg/mL
CC(C)C[C@@H]1NC(=O)[C@H](CC(C)C)N(C)C(=O)[C@H](CC(C)C)NC(=O)[C@H](CC(C)C)N(C)C(=O)[C@@H](Cc2ccccc2)NC1=O [Analog-2, Cyclo(Me-Leu-Leu-D-Phe-Me-Leu-Leu)] | 9.5 ± 0.32 µg/mL (≈ 15.1 µM) | 9.64 ± 0.27 µg/mL (≈ 15.4 µM) | 4.95 ± 0.18 µg/mL (≈ 7.88 µM) | 4.56 ± 0.22 µg/mL (≈ 7.26 µM) |  |  |  |  |  |  |  |  |  |  |  |  | 
CC(C)C[C@@H]1NC(=O)[C@H](CC(C)C)N(C)C(=O)[C@H](CC(C)C)NC(=O)[C@H](CC(C)C)N(C)C(=O)[C@H](Cc2ccccc2)NC1=O [Analog-1, Cyclo(Me-Leu-Leu-Phe-Me-Leu-Leu)] | 9.76 ± 0.18 µg/mL (≈ 15.5 µM) | 13.03 ± 0.33 µg/mL (≈ 20.8 µM) | 6.85 ± 0.26 µg/mL (≈ 10.9 µM) | 5.85 ± 0.13 µg/mL (≈ 9.32 µM) |  |  |  |  |  |  |  |  |  |  |  |  | 
CC(C)C[C@@H]1NC(=O)[C@@H](CC(C)C)N(C)C(=O)[C@H](CC(C)C)NC(=O)[C@H](CC(C)C)N(C)C(=O)[C@H](Cc2ccccc2)NC1=O [Analog-5, Cyclo(Me-D-Leu-Leu-Phe-Me-Leu-Leu] | 20.43 ± 0.23 µg/mL (≈ 32.5 µM) | 15.21 ± 0.29 µg/mL (≈ 24.2 µM) | 7.4 ± 0.33 µg/mL (≈ 11.8 µM) | 10.72 ± 0.32 µg/mL (≈ 17.1 µM) |  |  |  |  |  |  |  |  |  |  |  |  | 
CC(C)C[C@@H]1NC(=O)[C@H](CC(C)C)N(C)C(=O)[C@H](CC(C)C)NC(=O)[C@@H](CC(C)C)N(C)C(=O)[C@H](Cc2ccccc2)NC1=O [Analog-3, Cyclo(Me-Leu-Leu-Phe-Me-D-Leu-Leu)] | 12.6 ± 0.29 µg/mL (≈ 20.1 µM) | 18.16 ± 0.33 µg/mL (≈ 28.9 µM) | 4.39 ± 0.26 µg/mL (≈ 6.99 µM) | 7.71 ± 0.11 µg/mL (≈ 12.3 µM) |  |  |  |  |  |  |  |  |  |  |  |  | 
CC(C)C[C@@H]1NC(=O)[C@H](CC(C)C)N(C)C(=O)[C@@H](CC(C)C)NC(=O)[C@H](CC(C)C)N(C)C(=O)[C@H](Cc2ccccc2)NC1=O [Analog-4, Cyclo(Me-Leu-Leu-Phe-Me-Leu-D-Leu)] | 7.67 ± 0.18 µg/mL (≈ 12.2 µM) | 8.62 ± 0.26 µg/mL (≈ 13.7 µM) | 4.2 ± 0.32 µg/mL (≈ 6.69 µM) | 7.2 ± 0.15 µg/mL (≈ 11.5 µM) | 70.5% | 9.33% | 20.2% | 1.78% | 64.2% | 12.9% | 22.9% | 7.1% | 67.6% | 5.91% | 26.5% | 35.5% | 
